From PMC12274739, “Differential substrate degradation by super-degron: EGFP in wild-type mouse cells, PD-1 requires CRBN humanization” (iScience, 2025)
Where two headings read alike, the source gives them in different places.

Key:
[1] = molecular target: EGFP-ZFP91 (UniProt P42212+Q8C7D2, F64L/H231L/INS1V/S65T); format: cell-based, mouse; details: for Bottom, EGFP-ZFP91 / LogDC50, EGFP-ZFP91: stable
[2] = molecular target: EGFP-IKZF (UniProt P42212+Q8C7D2, F64L/H231L/INS1V/S65T); format: cell-based, mouse; details: stable
[3] = CrbnI391V/I391V mESCs, Figure 5E

Structure (SMILES): O=C1CC[C@H](N2Cc3c(OCc4ccc(CN5CCOCC5)cc4)cccc3C2=O)C(=O)N1 [IBR, iberdomide]
- Bottom, EGFP-ZFP91 ([1]; B6J-S1 mESCs, Figure 5B): 1.006
- LogDC50, EGFP-ZFP91 ([1]; B6J-S1 mESCs, Figure 5B): -1.679 μM
- degradation of EGFP-ZFP91 ([1]; CrbnI391V/I391V mESCs): efficiently degraded
- Bottom, EGFP-ZFP91 [1, 3]: 0.1665
- LogDC50, EGFP-ZFP91 [1, 3]: -3.079 μM
- Bottom, EGFP-IKZF ([2]; B6J-S1 mESCs, Figure 5B): 1.103
- LogDC50, EGFP-IKZF ([2]; B6J-S1 mESCs, Figure 5B): -1.536 μM
- Bottom, EGFP-IKZF [2, 3]: 0.2424
- LogDC50, EGFP-IKZF [2, 3]: -3.194 μM

Structure (SMILES): Nc1cccc2c1C(=O)N(C1CCC(=O)NC1=O)C2=O (stereo not shown) [POM, pomalidomide]
- Bottom, EGFP-ZFP91 [1, 3]: 0.1492
- LogDC50, EGFP-ZFP91 [1, 3]: -2.052 μM
- Bottom, EGFP-IKZF [2, 3]: 0.1316
- LogDC50, EGFP-IKZF [2, 3]: -2.292 μM
